The test system of one series is dogs. As to the kind of experiment: Anorexigenic activity in dogs (method of Adams et al). Type of series: in vivo, dog. The settings on record: Canis lupus familiaris, po, compound given in lieu of first ball, balls offered every 10 minutes for 7 hours, activity grew with increasing doses, read-out: dose at which anorexigenic activity was shown (refusal of food balls). Here is the method:
The anorexigenic activity was studied in dogs using the method of Adams et al [J. Pharm. Sci., Vol. 53, (1964), p. 1405]. On the day of the test with the compound presumed to be anorexigenic, the individual daily ration of the animal was divided into about equal balls (10 to 20 g) which were offered to the dog every 10 minutes for 7 hours. Normally, the animal will regularly accept the successive balls when they are presented.

The nature of series [1]: Acute toxicity, LD50 in mice after intraperitoneal administration. The note with it: mouse, in vivo, ip, determined 48 hours after administration. As for the experimental part: The LD50 or lethal dose at which 50% of the animals died after intraperitoneal administration of the test compound to mice was determined 48 hours after the administration.

The text below walks through data of patent US4296126A, “3-Aryloxy-3-aryl-propaneamines and their method of use” (Roussel Uclaf, priority 1978, dated 1981).

One may read the LD50 as the dose expected to kill half of the subjects tested.

Where a name gives a salt, the structure may show the parent alone.

As to `CN(C)CCC(Oc1ccc([N+](=O)[O-])cc1)c1ccccc1` (centres unmarked) [Example 1, N,N-dimethyl-γ-(4-nitrophenoxy)-benzene-propanamine oxalate], the minimal effective dose with dogs came to 3 mg/kg. In addition, the LD50 at 48 h in series [1] is roughly 75 mg/kg.
